The text below walks through data of PubChem BioAssay AID2769 (The Scripps Research Institute Molecular Screening Center, 2010).

The term IC50 denotes the point on the concentration scale where inhibition reaches its midpoint.

In this test the target is VIM-2 metallo-beta-lactamase (Pseudomonas aeruginosa) (UniProt Q9K2N0). The experiment in a line: VIM-2 metallo-beta-lactamase inhibitor potency, late-stage follow-up, biochemical, epi-absorbance, dose response (AID 2769). The note with it: purified VIM-2, nitrocefin absorbance hydrolysis.
For `O=C(O)c1ccc[c]([Hg+])c1`, the IC50 was 817 nM.
On to `CC(=O)Nc1cc[c]([Hg+])cc1`, for which the IC50 is 2580 nM.
In the case of `[Hg+][c]1ccccc1`, the 50% inhibitory concentration (IC50) is 1000 nM.
As to `Cc1cc[c]([Hg+])cc1`, the IC50 is 814 nM.
The result for `O=C(O)c1cc[c]([Hg][Cl])cc1` reads 2590 nM.
